Patent publication US9168212B2, “Composition for eyelash growth” (SK CHEMICALS CO., LTD., priority 2011, dated 2015)

Tests used:
eyelashes [1] = assay: In vivo evaluation related to eyelash growth (two weeks local administration); set-up: species or system mouse
Procedure: (§1) Analysis was conducted immediately after the eyelashes were collected. Using a high-performance microscope with computer-assisted eyelid thickness focus fixation and an image analysis software capable of measuring the number, thickness and length of eyelashes, the eyelashes were measured for the exact number, thickness and length thereof. Numeric data obtained by this method was averaged, and comparative analysis was conducted using prism statistical software.

eyelashes [2] = assay: Short-term in vivo evaluation related to eyelash growth (one week administration); set-up: species or system mouse
Procedure: as §1

[3] = female mouse, 2 μl applied to the eyelashes once a day for two weeks, n is 8 for each group
[4] = female mouse, 2 μl applied to the eyelashes once a day for one week, n is 6 for each group

CCNC(=O)CCC/C=C\C[C@@H]1[C@@H](/C=C/[C@@H](O)CCc2ccccc2)[C@H](O)C[C@@H]1O [bimatoprost]
statistical significance of increase in number, thickness and length of eyelashes compared to the control group (eyelashes [1]; administered for two weeks, t-test): statistically significant increase in only two items of number and thickness of eyelashes
number of eyelashes (eyelashes [1]; [3]): 39.0 eyelashes
number of eyelashes having a length of 1000 μm or more (eyelashes [1]; [3]): 9.5 eyelashes
number of eyelashes having a thickness of 15 μm or more (eyelashes [1]; [3]): 9.5 eyelashes
number of eyelashes (eyelashes [2]; [4]): 37.8 eyelashes
number of eyelashes having a length of 1000 μm or more (eyelashes [2]; [4]): 12.3 eyelashes
number of eyelashes having a thickness of 15 μm or more (eyelashes [2]; [4]): 8.7 eyelashes
statistical significance of increase in number, thickness and length of eyelashes compared to the control group (eyelashes [2]; one week administration, t-test): statistically significant increase in only one item of eyelash thickness
